Reference: ChEMBL document CHEMBL5465560, “Selectivity Literature for EUbOPEN Chemogenomic Library” (2024)
Each block holds one compound with its values, some of them ahead of it.

Tests used:
[1] = biological target: T1, Interleukin-1 receptor-associated kinase 4 (Homo sapiens, UniProt Q9NWZ3); experiment: Selectivity interaction (Kinase counterscreening (biochemical assay)) EUB0000604a IRAK4
T1 sequence (Q9NWZ3 whole entry): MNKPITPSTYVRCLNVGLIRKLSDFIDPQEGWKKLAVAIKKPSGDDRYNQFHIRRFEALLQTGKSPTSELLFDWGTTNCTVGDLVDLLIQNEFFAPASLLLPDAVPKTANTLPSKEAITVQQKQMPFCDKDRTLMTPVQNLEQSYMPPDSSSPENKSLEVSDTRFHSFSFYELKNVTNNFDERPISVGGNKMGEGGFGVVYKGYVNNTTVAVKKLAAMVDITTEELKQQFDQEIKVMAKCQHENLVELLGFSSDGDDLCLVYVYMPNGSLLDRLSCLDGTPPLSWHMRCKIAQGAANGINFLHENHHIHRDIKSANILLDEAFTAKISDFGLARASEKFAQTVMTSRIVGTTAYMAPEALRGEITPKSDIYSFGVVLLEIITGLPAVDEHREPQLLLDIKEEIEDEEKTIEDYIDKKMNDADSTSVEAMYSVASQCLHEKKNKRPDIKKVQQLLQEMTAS

[2] = biological target: Microtubule-associated serine/threonine-protein kinase 1 (Homo sapiens) (UniProt Q9Y2H9); experiment: Selectivity interaction (KinomeScan (DiscoverX)) EUB0001049a MAST1; conditions: at 1 µM
Sequence of Microtubule-associated serine/threonine-protein kinase 1 (Homo sapiens) (Q9Y2H9 whole entry, looked up): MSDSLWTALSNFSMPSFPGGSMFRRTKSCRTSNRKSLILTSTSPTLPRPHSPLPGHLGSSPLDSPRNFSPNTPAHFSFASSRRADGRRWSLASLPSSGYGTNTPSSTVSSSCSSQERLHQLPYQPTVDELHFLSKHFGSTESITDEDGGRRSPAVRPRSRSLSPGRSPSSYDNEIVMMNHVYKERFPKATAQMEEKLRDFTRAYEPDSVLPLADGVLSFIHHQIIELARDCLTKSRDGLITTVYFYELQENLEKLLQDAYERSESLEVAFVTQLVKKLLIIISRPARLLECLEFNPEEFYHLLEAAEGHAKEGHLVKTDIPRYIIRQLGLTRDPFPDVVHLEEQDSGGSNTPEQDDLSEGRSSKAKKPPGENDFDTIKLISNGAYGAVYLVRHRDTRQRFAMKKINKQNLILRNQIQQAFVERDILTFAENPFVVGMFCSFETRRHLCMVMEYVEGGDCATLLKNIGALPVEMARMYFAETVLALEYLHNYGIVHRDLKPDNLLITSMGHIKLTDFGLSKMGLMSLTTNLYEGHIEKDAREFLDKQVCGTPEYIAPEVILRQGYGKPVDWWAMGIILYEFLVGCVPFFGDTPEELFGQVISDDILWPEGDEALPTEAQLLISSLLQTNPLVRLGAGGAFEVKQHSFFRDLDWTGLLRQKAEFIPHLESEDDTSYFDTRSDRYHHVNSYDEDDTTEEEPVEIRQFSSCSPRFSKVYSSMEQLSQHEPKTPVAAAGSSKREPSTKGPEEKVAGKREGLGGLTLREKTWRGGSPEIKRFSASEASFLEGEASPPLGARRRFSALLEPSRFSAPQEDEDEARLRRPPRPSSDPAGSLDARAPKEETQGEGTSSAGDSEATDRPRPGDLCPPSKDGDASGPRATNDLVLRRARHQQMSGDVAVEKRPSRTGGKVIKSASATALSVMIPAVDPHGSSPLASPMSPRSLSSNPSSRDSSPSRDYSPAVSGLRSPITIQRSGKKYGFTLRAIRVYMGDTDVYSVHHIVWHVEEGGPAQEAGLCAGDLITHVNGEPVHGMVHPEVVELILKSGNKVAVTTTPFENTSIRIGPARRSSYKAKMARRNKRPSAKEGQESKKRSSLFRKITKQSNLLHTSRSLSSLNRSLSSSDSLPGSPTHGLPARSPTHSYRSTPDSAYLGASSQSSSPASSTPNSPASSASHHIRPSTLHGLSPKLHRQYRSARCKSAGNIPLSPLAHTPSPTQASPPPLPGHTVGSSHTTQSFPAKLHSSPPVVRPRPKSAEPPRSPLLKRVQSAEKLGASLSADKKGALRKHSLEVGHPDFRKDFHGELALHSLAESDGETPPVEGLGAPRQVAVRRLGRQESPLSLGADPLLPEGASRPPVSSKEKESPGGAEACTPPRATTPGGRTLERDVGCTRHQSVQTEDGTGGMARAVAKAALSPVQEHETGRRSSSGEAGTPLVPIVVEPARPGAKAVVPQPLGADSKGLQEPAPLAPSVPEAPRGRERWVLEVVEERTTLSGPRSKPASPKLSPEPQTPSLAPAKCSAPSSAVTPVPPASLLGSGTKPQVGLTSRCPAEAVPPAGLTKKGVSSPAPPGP

[3] = biological target: Vascular endothelial growth factor receptor 3 (Homo sapiens, UniProt P35916); experiment: Selectivity interaction (Ambit KINOMEscan and KiNATiv profiling in Jurkat cells) EUB0000090b FLT4; type: cell-based; conditions: at 1 µM
Sequence of Vascular endothelial growth factor receptor 3 (P35916 whole entry): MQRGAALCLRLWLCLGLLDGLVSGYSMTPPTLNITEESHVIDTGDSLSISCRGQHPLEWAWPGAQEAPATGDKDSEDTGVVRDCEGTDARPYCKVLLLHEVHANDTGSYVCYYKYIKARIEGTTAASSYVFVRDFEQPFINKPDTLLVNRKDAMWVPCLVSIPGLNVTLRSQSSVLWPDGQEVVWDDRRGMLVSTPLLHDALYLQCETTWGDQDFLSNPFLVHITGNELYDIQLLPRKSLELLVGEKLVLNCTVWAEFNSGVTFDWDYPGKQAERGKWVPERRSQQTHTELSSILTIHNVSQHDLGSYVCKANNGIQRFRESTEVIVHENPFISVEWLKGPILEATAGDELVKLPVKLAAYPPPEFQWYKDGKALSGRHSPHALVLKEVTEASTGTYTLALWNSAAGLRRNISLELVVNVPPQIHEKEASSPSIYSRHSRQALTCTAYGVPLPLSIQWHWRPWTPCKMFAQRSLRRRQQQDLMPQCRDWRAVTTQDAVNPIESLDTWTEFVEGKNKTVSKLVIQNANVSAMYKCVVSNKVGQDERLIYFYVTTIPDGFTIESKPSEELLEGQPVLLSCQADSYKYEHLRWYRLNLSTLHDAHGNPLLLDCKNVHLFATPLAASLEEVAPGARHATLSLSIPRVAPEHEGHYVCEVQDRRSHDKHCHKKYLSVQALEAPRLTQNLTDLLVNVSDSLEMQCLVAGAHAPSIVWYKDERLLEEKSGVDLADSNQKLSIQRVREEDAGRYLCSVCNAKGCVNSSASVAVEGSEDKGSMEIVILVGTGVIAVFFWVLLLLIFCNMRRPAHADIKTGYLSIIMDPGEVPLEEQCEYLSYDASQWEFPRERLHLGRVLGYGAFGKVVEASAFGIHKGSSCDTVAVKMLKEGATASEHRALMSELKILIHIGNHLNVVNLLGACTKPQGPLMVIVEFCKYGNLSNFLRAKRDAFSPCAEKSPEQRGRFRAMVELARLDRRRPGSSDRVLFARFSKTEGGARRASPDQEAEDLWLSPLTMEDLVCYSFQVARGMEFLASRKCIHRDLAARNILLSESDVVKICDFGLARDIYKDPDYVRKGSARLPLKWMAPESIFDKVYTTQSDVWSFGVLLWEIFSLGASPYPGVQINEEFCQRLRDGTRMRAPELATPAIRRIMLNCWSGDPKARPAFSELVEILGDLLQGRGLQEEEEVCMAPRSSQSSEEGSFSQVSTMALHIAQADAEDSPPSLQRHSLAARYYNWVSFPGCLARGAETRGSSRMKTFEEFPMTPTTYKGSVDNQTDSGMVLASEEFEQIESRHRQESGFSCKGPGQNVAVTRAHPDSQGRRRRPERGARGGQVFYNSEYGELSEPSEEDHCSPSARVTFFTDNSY

[4] = biological target: T2, Phosphatidylinositol 5-phosphate 4-kinase type-2 gamma (Homo sapiens) (UniProt Q8TBX8); experiment: Selectivity interaction (ActivX KiNativ screen (kinase selectivity in THP-1 cell lysates)) EUB0000639a PIP4K2C; type: subcellular; conditions: lysate, at 0.04 µM
T2 sequence (whole entry): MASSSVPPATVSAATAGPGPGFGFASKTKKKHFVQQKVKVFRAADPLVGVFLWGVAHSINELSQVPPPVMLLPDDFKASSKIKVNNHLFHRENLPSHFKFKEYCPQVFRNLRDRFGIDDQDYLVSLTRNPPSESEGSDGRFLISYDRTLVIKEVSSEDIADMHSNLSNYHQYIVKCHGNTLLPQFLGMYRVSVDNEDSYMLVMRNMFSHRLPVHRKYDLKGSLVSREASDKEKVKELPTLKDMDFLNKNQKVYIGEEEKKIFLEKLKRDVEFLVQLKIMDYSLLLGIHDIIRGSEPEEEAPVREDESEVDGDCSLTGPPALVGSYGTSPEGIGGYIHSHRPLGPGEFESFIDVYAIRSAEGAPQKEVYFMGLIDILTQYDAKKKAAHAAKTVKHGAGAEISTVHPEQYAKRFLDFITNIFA

[5] = biological target: MAP kinase-interacting serine/threonine-protein kinase 2 (Homo sapiens, UniProt Q9HBH9); experiment: Selectivity interaction (Kinase panel (literature)) EUB0001199aCl MKNK2; conditions: at 1 µM
Sequence of MAP kinase-interacting serine/threonine-protein kinase 2 (Q9HBH9 whole entry, looked up): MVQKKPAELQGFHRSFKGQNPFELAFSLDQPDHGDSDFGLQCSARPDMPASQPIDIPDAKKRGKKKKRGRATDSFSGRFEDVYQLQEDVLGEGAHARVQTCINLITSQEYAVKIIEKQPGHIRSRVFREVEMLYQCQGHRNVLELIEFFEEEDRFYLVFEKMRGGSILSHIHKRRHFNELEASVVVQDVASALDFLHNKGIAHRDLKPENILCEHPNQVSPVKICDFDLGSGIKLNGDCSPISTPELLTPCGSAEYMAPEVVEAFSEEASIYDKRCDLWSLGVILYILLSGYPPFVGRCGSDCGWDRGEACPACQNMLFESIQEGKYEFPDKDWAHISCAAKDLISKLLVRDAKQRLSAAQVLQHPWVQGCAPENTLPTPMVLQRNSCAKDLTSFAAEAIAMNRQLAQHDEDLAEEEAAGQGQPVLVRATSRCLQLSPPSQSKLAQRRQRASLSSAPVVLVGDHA

[6] = biological target: T3, Dual specificity mitogen-activated protein kinase kinase 4 (Homo sapiens) (UniProt P45985); experiment: Selectivity interaction (KinomeScan (DiscoverX)) EUB0000595a MAP2K4; conditions: at 10 µM
T3 sequence (whole entry): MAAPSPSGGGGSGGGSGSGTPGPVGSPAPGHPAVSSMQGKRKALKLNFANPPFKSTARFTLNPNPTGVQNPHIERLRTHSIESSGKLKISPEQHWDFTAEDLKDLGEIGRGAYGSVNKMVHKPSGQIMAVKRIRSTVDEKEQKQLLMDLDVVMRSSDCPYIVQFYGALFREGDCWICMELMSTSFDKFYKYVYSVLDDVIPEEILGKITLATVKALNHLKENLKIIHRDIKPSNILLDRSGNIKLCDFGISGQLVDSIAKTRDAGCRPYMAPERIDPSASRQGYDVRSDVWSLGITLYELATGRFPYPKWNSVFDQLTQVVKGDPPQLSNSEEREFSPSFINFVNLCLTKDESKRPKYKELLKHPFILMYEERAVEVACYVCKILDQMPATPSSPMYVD

[7] = biological target: Activin receptor type-2A (Homo sapiens) (UniProt P27037); experiment: Selectivity interaction (KinomeScan (DiscoverX)) EUB0000595a ACVR2A; conditions: at 10 µM
Sequence of Activin receptor type-2A (Homo sapiens) (P27037 whole entry): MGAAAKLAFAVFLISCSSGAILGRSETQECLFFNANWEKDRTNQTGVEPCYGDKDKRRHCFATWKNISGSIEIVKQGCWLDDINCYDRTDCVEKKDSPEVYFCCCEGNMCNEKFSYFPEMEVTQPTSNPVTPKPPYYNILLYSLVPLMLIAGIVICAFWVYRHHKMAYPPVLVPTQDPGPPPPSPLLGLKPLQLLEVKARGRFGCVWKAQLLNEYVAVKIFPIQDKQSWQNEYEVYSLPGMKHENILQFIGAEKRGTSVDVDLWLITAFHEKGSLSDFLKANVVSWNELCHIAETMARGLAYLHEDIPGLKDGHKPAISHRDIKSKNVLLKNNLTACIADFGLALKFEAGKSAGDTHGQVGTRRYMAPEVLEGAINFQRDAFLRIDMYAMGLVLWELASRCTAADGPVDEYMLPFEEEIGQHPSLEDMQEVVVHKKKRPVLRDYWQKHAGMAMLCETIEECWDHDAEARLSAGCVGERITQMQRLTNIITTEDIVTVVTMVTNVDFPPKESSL

[8] = biological target: Aurora kinase B (Homo sapiens, UniProt Q96GD4); experiment: Selectivity interaction (ProQinase) EUB0000171b AURKB
Sequence of Aurora kinase B (Q96GD4 whole entry): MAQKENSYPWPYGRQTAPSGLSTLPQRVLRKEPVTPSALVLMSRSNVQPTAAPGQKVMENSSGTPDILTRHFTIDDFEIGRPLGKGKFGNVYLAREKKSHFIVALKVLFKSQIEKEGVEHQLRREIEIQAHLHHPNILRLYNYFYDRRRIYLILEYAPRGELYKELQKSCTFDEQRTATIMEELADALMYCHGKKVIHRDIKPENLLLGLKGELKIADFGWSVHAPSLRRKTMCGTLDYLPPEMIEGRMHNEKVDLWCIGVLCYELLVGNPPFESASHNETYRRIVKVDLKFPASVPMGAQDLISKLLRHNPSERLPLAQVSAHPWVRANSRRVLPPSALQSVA

[9] = biological target: STE20/SPS1-related proline-alanine-rich protein kinase (Homo sapiens) (UniProt Q9UEW8); experiment: Selectivity interaction (KinomeScan (DiscoverX)) EUB0000045b STK39

Compound: Cc1cnc(Nc2ccc(F)cc2Cl)nc1-c1c[nH]c(C(=O)N[C@H](CO)c2cccc(Cl)c2)c1
Ki [1]: > 4 µM

Compound: COc1cc(Nc2nc(C)cc(-c3cnn4nc(OC)ccc34)n2)cc(C(F)(F)F)c1
% of control [2]: 100%

Compound: CN(C)C/C=C/C(=O)Nc1ccc(C(=O)N2CCCC(Nc3ncc(Cl)c(-c4c[nH]c5ccccc45)n3)C2)cc1 (stereo unspecified)
% of control [3]: 70%

% of inhibition [4]: 6.2%
Compound: CC[C@@H]1[C@H](F)C(=O)N[C@@H]1COc1nccc2cc(C(N)=O)c(OC)cc12 [ZIMLOVISERTIB]

% of inhibition [5]: 9%
Compound: CN1Cc2nccc(-c3cn(C)nc3-c3ccc(F)cc3)c2C1=O

Compound: COCC(=O)NC/C=C/c1ccc2ncnc(Nc3ccc(Oc4ccc(C)nc4)c(C)c3)c2c1 [CP-724714]
% of control [6]: 95% | % of control [7]: 100%

% of control ([8]; at 1 µM): 73% | % of control ([8]; at 5 µM): 40%
Compound: C=CC(=O)Nc1cccc(C(=O)Nc2ccc(Nc3cc(-c4[nH]c(SC)nc4C)ccn3)cc2)c1

Compound: C=CC(=O)Nc1cc(-n2c(=O)ccc3cnc4ccc(-c5ccc(NS(C)(=O)=O)cc5)cc4c32)ccc1C
% of control ([9]; at 1 µM): 68% | % of control ([9]; at 10 µM): 100%
